Measurements from US20240101521A1, “DIAMINOTRIAZINE COMPOUNDS” (BASF SE, priority 2021, published 2024).

How the values were obtained:
Assay in all cases: greenhouse pre-emergence herbicidal test
Assay type in all cases: in vivo
Settings in all cases: scale 0 to 100
Amaranthus retroflexus = tested on: Amaranthus retroflexus
From the text: (§1) The culture containers used were plastic flowerpots containing loamy sand with approximately 3.0% of humus as the substrate. The seeds of the test plants were sown separately for each species.
(§2) For the pre-emergence treatment, the active ingredients, which had been suspended or emulsified in water, were applied directly after sowing by means of finely distributing nozzles. The containers were irrigated gently to promote germination and growth and subsequently covered with transparent plastic hoods until the plants had rooted. This cover caused uniform germination of the test plants, unless this had been impaired by the active ingredients. For the post-emergence treatment, the test plants were first grown to a height of 3 to 15 cm, depending on the plant habit, and only then treated with the active ingredients which had been suspended or emulsified in water. For this purpose, the test plants were either sown directly and grown in the same containers, or they were first grown separately as seedlings and transplanted into the test containers a few days prior to treatment.
(§3) Depending on the species, the plants were kept at 10-25° C. or 20-35° C., respectively.
(§4) The test period extended over 2 to 4 weeks. During this time, the plants were tended, and their response to the individual treatments was evaluated.
(§5) Evaluation was carried out using a scale from 0 to 100. 100 means no emergence of the plants, or complete destruction of at least the aerial moieties, and 0 means no damage, or normal course of growth. A moderate herbicidal activity is given at values of at least 60, a good herbicidal activity is given at values of at least 70, and a very good herbicidal activity is given at values of at least 85.
(§6) The plants used in the greenhouse experiments were of the following species: […]

Echinochloa crus-galli = tested on: Echinochloa crus-galli
From the text: as §1, §2, §3, §4, §5, §6

Setaria faberi = tested on: Setaria faberi
From the text: as §1, §2, §3, §4, §5, §6

Row | Compound | herbicidal activity (Amaranthus retroflexus; pre-emergence, 62 g/ha) | herbicidal activity (Echinochloa crus-galli; pre-emergence, 62 g/ha) | herbicidal activity (Setaria faberi; pre-emergence, 62 g/ha) | other results
1 | CC#CCOc1c(Cl)ccc(F)c1Nc1nc(N)nc(C(C)(C)F)n1 [Example 42] |  |  |  | herbicidal activity (Amaranthus retroflexus; pre-emergence, 31 g/ha): 100%; herbicidal activity (Echinochloa crus-galli; pre-emergence, 31 g/ha): 100%; herbicidal activity (Setaria faberi; pre-emergence, 31 g/ha): 100%
2 | COc1c(Cl)cc(Cl)c(F)c1Nc1nc(N)nc(C2(F)CC2)n1 [Example 72] | 100% | 100% | 100% | 
3 | C#CCOc1c(C)ccc(F)c1Nc1nc(N)nc(C(C)(C)F)n1 [Example 71] | 100% | 100% | 100% | 
4 | COc1c(Cl)ccc(F)c1Nc1nc(N)nc(C(C)(F)F)n1 [Example 48] |  |  |  | herbicidal activity (Amaranthus retroflexus; pre-emergence, 31 g/ha): 100%; herbicidal activity (Echinochloa crus-galli; pre-emergence, 31 g/ha): 70%; herbicidal activity (Setaria faberi; pre-emergence, 31 g/ha): 100%
5 | C#CCOc1c(Cl)cc(F)c(F)c1Nc1nc(N)nc(C(C)(C)OC)n1 [Example 88] | 100% | 100% | 100% | 
6 | C#CCOc1c(Br)cc(F)c(F)c1Nc1nc(N)nc(C(C)F)n1 (stereo not drawn) [Example 89] | 100% | 100% | 100% | 
7 | C#CCOc1c(Cl)cc(F)c(F)c1Nc1nc(N)nc(C2(F)CCCCC2)n1 [Example 112] |  |  |  | herbicidal activity (Amaranthus retroflexus; pre-emergence, 62,5 g/ha): 95%; herbicidal activity (Echinochloa crus-galli; pre-emergence, 62,5 g/ha): 95%; herbicidal activity (Setaria faberi; pre-emergence, 62,5 g/ha): 90%
8 | CCOc1c(Br)ccc(F)c1Nc1nc(N)nc(C(C)(C)F)n1 [Example 45] |  |  |  | herbicidal activity (Amaranthus retroflexus; pre-emergence, 62,5 g/ha): 100%; herbicidal activity (Echinochloa crus-galli; pre-emergence, 62,5 g/ha): 100%; herbicidal activity (Setaria faberi; pre-emergence, 62,5 g/ha): 100%
9 | CC#CC(C)Oc1c(Br)cc(F)c(F)c1Nc1nc(N)nc(C(C)(C)F)n1 (stereo not drawn) [Example 95] | 100% | 100% | 100% | 
10 | C#CCOc1c(Br)cc(F)c(F)c1Nc1nc(N)nc(C(C)(C)OC)n1 [Example 87] | 100% | 100% | 100% | 
11 | CC#CCOc1c(C)ccc(F)c1Nc1nc(N)nc(C(C)(C)F)n1 [Example 70] | 100% | 100% | 100% | 
12 | CC#CCOc1c(C)cc(Br)c(F)c1Nc1nc(N)nc(C(C)(C)F)n1 [Example 68] | 100% | 100% | 100% | 
13 | C#CCOc1c(Br)cc(Cl)c(F)c1Nc1nc(N)nc(C(C)(C)F)n1 [Example 77] | 100% | 100% | 100% | 
14 | CC(C)(F)c1nc(N)nc(Nc2c(F)c(Cl)cc(Cl)c2OC(F)F)n1 [Example 93] | 100% | 100% | 100% | 
15 | COc1c(Cl)cc(F)c(F)c1Nc1nc(N)nc(C(C)Cl)n1 (stereo not drawn) [Example 38] |  |  |  | herbicidal activity (Amaranthus retroflexus; pre-emergence, 62,5 g/ha): 100%; herbicidal activity (Echinochloa crus-galli; pre-emergence, 62,5 g/ha): 100%; herbicidal activity (Setaria faberi; pre-emergence, 62,5 g/ha): 100%
16 | C#CCOc1c(Cl)cc(F)c(F)c1Nc1nc(N)nc(C(C)F)n1 (stereo not drawn) [Example 91] | 100% | 100% | 100% | 
17 | CCOc1c(Br)cc(F)c(F)c1Nc1nc(N)nc(C2(F)CCCC2)n1 [Example 21] |  |  |  | herbicidal activity (Amaranthus retroflexus; pre-emergence, 62,5 g/ha): 95%; herbicidal activity (Echinochloa crus-galli; pre-emergence, 62,5 g/ha): 100%; herbicidal activity (Setaria faberi; pre-emergence, 62,5 g/ha): 100%
18 | CCOc1c(Cl)ccc(F)c1Nc1nc(N)nc(C(C)(C)F)n1 [Example 41] |  |  |  | herbicidal activity (Amaranthus retroflexus; pre-emergence, 62,5 g/ha): 100%; herbicidal activity (Echinochloa crus-galli; pre-emergence, 62,5 g/ha): 100%; herbicidal activity (Setaria faberi; pre-emergence, 62,5 g/ha): 100%
19 | CCC(C)(F)c1nc(N)nc(Nc2c(F)c(Cl)cc(Cl)c2OC)n1 (stereo not drawn) [Example 62] |  |  |  | herbicidal activity (Amaranthus retroflexus; pre-emergence, 31 g/ha): 100%; herbicidal activity (Echinochloa crus-galli; pre-emergence, 31 g/ha): 100%; herbicidal activity (Setaria faberi; pre-emergence, 31 g/ha): 100%
20 | CCOc1c(Br)cc(Br)c(F)c1Nc1nc(N)nc(C(C)(C)F)n1 [Example 66] | 100% | 100% | 100% | 
21 | COc1c(C)ccc(F)c1Nc1nc(N)nc(C(C)(C)F)n1 [Example 69] | 100% | 100% | 100% | 
22 | CC#CCOc1c(Br)cc(Cl)c(F)c1Nc1nc(N)nc(C(C)(C)F)n1 [Example 78] | 100% | 100% | 100% | 
23 | C#CCOc1c(Cl)cc(F)c(F)c1Nc1nc(N)nc(C(C)(C)F)n1 [Example 28] |  |  |  | herbicidal activity (Amaranthus retroflexus; pre-emergence, 62,5 g/ha): 100%; herbicidal activity (Echinochloa crus-galli; pre-emergence, 62,5 g/ha): 100%; herbicidal activity (Setaria faberi; pre-emergence, 62,5 g/ha): 100%
24 | COc1c(Cl)cc(F)c(F)c1Nc1nc(N)nc(C(F)C2CC2)n1 (stereo not drawn) [Example 40] |  |  |  | herbicidal activity (Amaranthus retroflexus; pre-emergence, 62,5 g/ha): 100%; herbicidal activity (Echinochloa crus-galli; pre-emergence, 62,5 g/ha): 100%; herbicidal activity (Setaria faberi; pre-emergence, 62,5 g/ha): 100%
